Reference: PubChem BioAssay (NCI)
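Dose response: 5 concentrations. Exposure: 48 h. Format: 96-well plates. Endpoint: linear interpolation; highest concentration if not reached. Abbreviation: GI50, concentration required for 50% inhibition of growth. TGI: concentration producing complete growth inhibition.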

Legend:
Assay in all cases: growth of human tumour cells (NCI), 48 h
[1] = test system: SF-295 CNS
[2] = test system: SK-MEL-2 melanoma
[3] = test system: UACC-257 melanoma
[4] = test system: COLO 205 colon
[5] = test system: MDA-MB-435
[6] = test system: MDA-MB-231 breast
[7] = test system: ACHN renal
[8] = test system: UO-31 renal
[9] = test system: CAKI-1 renal
[10] = test system: SR leukemia
[11] = test system: HT29 colon
[12] = test system: SW-620 colon
[13] = test system: NCI-H460 lung
[14] = test system: HS 578T breast
[15] = test system: PC-3 prostate
[16] = test system: SNB-75 CNS
[17] = test system: HCT-15 colon
[18] = test system: NCI-H226 lung
[19] = test system: SF-268 CNS
[20] = test system: SF-539 CNS
[21] = test system: MCF7 breast
[22] = test system: MOLT-4 leukemia
[23] = test system: OVCAR-5 ovarian
[24] = test system: SK-OV-3 ovarian
[25] = test system: EKVX NSCLC
[26] = test system: OVCAR-8 ovarian
[27] = test system: SNB-19 CNS
[28] = test system: HCC-2998 colon
[29] = test system: IGROV1 ovarian
[30] = test system: HL-60(TB) leukemia
[31] = test system: MALME-3M melanoma
[32] = test system: A498 renal
[33] = test system: UACC-62 melanoma
[34] = test system: 786-0 renal
[35] = test system: SN12C renal
[36] = test system: HCT-116 colon
[37] = test system: NCI-H23 lung
[38] = test system: U251 CNS
[39] = test system: HOP-62 NSCLC
[40] = test system: OVCAR-3 ovarian
[41] = test system: BT-549 breast
[42] = test system: NCI-H522 lung
[43] = test system: HOP-92 NSCLC
[44] = test system: MDA-MB-468 breast
[45] = test system: M14 melanoma
[46] = test system: SK-MEL-5 melanoma
[47] = test system: DU-145 prostate
[48] = test system: KM12 colon
[49] = test system: TK-10 renal
[50] = test system: K-562 leukemia
[51] = test system: SK-MEL-28 melanoma
[52] = test system: OVCAR-4 ovarian
[53] = test system: A549 NSCLC
[54] = test system: LOX IMVI melanoma
[55] = test system: RXF 393 renal
[56] = test system: T-47D breast

In the case of `O=C(/C=C/c1ccccc1)c1nc2ccccc2n1Cc1ccc(Br)cc1`, the GI50 [1] is reported as 2.22 µM, the TGI [1] is reported as 5.25 µM and the GI50 [2] is reported as 2.23 µM. It also gave a TGI [2] of 5.08 µM, a GI50 [3] of 3.12 µM and a TGI [3] of 11.9 µM. It also gave a GI50 [4] of 2.36 µM, a TGI [4] of 5 µM and a GI50 [5] of 2.25 µM. It also gave a TGI [5] of 5.95 µM, a GI50 [6] of 2.26 µM and a TGI [6] of 5.16 µM. The GI50 [7] was 3.12 µM, the TGI [7] was 10.1 µM and the GI50 [8] was 1.46 µM. The TGI [8] was 2.97 µM, the GI50 [9] was 2.6 µM and the TGI [9] was 11.2 µM. It also gave a GI50 [10] of 1.97 µM, a TGI [10] of 6.01 µM and a GI50 [11] of 2.91 µM. The TGI [11] was 7.34 µM, the GI50 [12] was 2 µM and the TGI [12] was 4.09 µM. It also gave a GI50 [13] of 1.8 µM, a TGI [13] of 3.64 µM and a GI50 [14] of 4.22 µM. For the same compound, the TGI [14] was 53.4 µM, the GI50 [15] was 3.14 µM and the TGI [15] was 9.31 µM. The GI50 [16] was 3.83 µM, the TGI [16] was 22.1 µM and the GI50 [17] was 1.67 µM. The TGI [17] was 3.47 µM, the GI50 [18] was 3.8 µM and the TGI [18] was 15.9 µM. The GI50 [19] was 6.92 µM, the TGI [19] was > 100 µM and the GI50 [20] was 1.86 µM. The TGI [20] was 3.54 µM, the GI50 [21] was 1.78 µM and the TGI [21] was 6.26 µM. It also gave a GI50 [22] of 1.84 µM, a TGI [22] of 5.47 µM and a GI50 [23] of 2.2 µM. It also gave a TGI [23] of 4.54 µM, a GI50 [24] of 13.2 µM and a TGI [24] of 57.6 µM. The GI50 [25] was 2.75 µM, the TGI [25] was 8.44 µM and the GI50 [26] was 2.84 µM. It also gave a TGI [26] of 8.8 µM, a GI50 [27] of 1.81 µM and a TGI [27] of 3.64 µM. For the same compound, the GI50 [28] was 1.83 µM, the TGI [28] was 3.42 µM and the GI50 [29] was 2.32 µM. It also gave a TGI [29] of 5.53 µM, a GI50 [30] of 1.61 µM and a TGI [30] of 4.17 µM. It also gave a GI50 [31] of 1.94 µM, a TGI [31] of 4.63 µM and a GI50 [32] of 15.1 µM. It also gave a TGI [32] of 28.4 µM, a GI50 [33] of 1.85 µM and a TGI [33] of 4.68 µM. It also gave a GI50 [34] of 1.79 µM, a TGI [34] of 3.34 µM and a GI50 [35] of 3.46 µM. For the same compound, the TGI [35] was 12.4 µM, the GI50 [36] was 1.71 µM and the TGI [36] was 3.16 µM. For the same compound, the GI50 [37] was 2.01 µM, the TGI [37] was 4.29 µM and the GI50 [38] was 1.65 µM. The TGI [38] was 3.2 µM, the GI50 [39] was 2.21 µM and the TGI [39] was 5.09 µM. It also gave a GI50 [40] of 2.28 µM, a TGI [40] of 5.56 µM and a GI50 [41] of 1.93 µM. For the same compound, the TGI [41] was 4.7 µM, the GI50 [42] was 1.84 µM and the TGI [42] was 4.04 µM. The GI50 [43] was 1.92 µM, the TGI [43] was 8.58 µM and the GI50 [44] was 1.89 µM. It also gave a TGI [44] of 3.81 µM, a GI50 [45] of 2.16 µM and a TGI [45] of 4.77 µM. For the same compound, the GI50 [46] was 2.44 µM, the TGI [46] was 6.95 µM and the GI50 [47] was 3.96 µM. For the same compound, the TGI [47] was 18.6 µM, the GI50 [48] was 2.95 µM and the TGI [48] was 10.2 µM. For the same compound, the GI50 [49] was 2.57 µM, the TGI [49] was 7.63 µM and the GI50 [50] was 2.39 µM. For the same compound, the TGI [50] was 6.6 µM, the GI50 [51] was 1.84 µM and the TGI [51] was 3.74 µM. The GI50 [52] was 8.7 µM, the TGI [52] was 81.5 µM and the GI50 [53] was 3.51 µM. For the same compound, the TGI [53] was 20.4 µM, the GI50 [54] was 1.65 µM and the TGI [54] was 3.12 µM. The GI50 [55] was 1.51 µM, the TGI [55] was 2.84 µM and the GI50 [56] was 2.36 µM. It also gave a TGI [56] of 10.2 µM.
